{"source": "patent US6723897B2", "about": "“Methods for controlling gibberellin levels” (Monsanto Technology, LLC, priority 1998, dated 2004)", "type_in_all_cases": "in vivo, Glycine max", "key": {"[1]": {"tested_on": "pMON34439 soybean lines 46 and 202", "assay": "GA3 soil drench plus foliar spray on AX5/antisense CPScc seedlings", "conditions": "1×10^−6 M GA3 soil drench before planting plus foliar 1×10^−5 M GA3 spray", "text": "Two out of 59 transgenic soybean lines transformed with construct pMON34439 (AX5 promoter/antisense CPScc, FIG. 26), lines 46 and 202, show a reduced stature during early seedling growth and then resume normal vegetative growth. Twenty seeds of each line are sown in Metromix 350 soil in 3″ plastic pots in the greenhouse, approximately 40% of the seedlings are reduced in stature for line 46 and 25, 35% for line 202."}, "[2]": {"tested_on": "soybean (A3237) in sand saturated with 3 mg/L ancymidol", "assay": "GA3 seed coating, reversal of ancymidol inhibition of soybean stature", "conditions": "3 mg GA3/kg seed (Release blended with talc); plant height at 6 DAP", "description": "The timing of emergence and plant stature at for transgenic (plasmid pMON29801, FMV/asCPScc) soybean line 724 is rescued by sowing seeds in soil saturated with 3×10^−6 M GA3. At 7 days after planting (DAP), the GA3 treatment to the seeds rescued plant stature to within 10% of the A3237 control. As an additional control, soybean (A3237) seeds are coated with different concentrations of a commercial formulation of GA3 (Release®) blended with talc and sown in sand saturated with 3 mg/L ancymidol and grown in a greenhouse. Plant height is measured at 6 DAP. […] This rate is equivalent to approximately 62 mg GA3 per acre (assuming 140,000 seeds/acre)."}, "A3237 soybean": {"tested_on": "A3237 soybean", "assay": "GA3 soil drench, shoot length of control soybean", "conditions": "line A3237; +3 × 10^−6 M GA3 soil drench; 7 days after planting", "text": "Thirty-five soybean plants are produced by transformation with pMON29801 (FIG. 7) containing the antisense CPS conserved core (asCPScc) gene driven by constitutive FMV promoter. The seed (R1) from the initial R0 transgenic lines is collected. R1 seeds are sown in 4-inch pots filled with commercial potting soil (Metromix 350) that is saturated with water or GA3 at a rate of either 3×10^−6 or 10^−5 M. Typically, 20 seeds are sown in 10 pots for each treatment, except where the seed supply is limiting. Pots are incubated in a greenhouse routinely used for soybean growth. Emergence is scored versus days after planting (DAP). Two soybean lines, 724 and 720, show a delayed emergence phenotype. Line 724 emergence is 1 to 2 days later than the control.\nGA3 added to plasmid pMON29801 transgenic soybean seeds as a soil drench also restores soybean emergence timing and plant height during early seedling growth. Rates of GA3 between 1×10^−6 and 1×10^−5 M, when added to soil either immediately before planting or immediately after, restores normal shoot length in emerged Line #719 seedlings (Table 5)."}, "[3]": {"tested_on": "wild-type soybean variety A4922", "assay": "GA3 seed treatment, soybean stand count and yield in the field", "text": "Treated seed is planted about 1 inch deep in previously disced soil using a cone planter. The rows are about 30 inches (76.2 cm) apart, and 15 feet (457.2 cm) long. Seeds are spaced about 3 inches (7.62 cm) apart within the rows. The emerged plants are counted periodically, and seed yields are obtained at harvest. The plant counts and yields are converted to a per acre basis. […] The decrease in plant population per acre is due to lack of emergence, in part due to broken and unhooked hypocotyls. In addition, some of the emerged plants are abnormal, e.g., with small, broken cotyledons, etc."}}, "data": [{"smiles": "C=C1C[C@]23C[C@@]1(O)CC[C@H]2[C@@]12C=C[C@H](O)[C@@](C)(C(=O)O1)[C@H]2[C@@H]3C(=O)O", "note": "[GA3, gibberellic acid]", "values": [{"measurement": "normal growth rate of seedlings", "setting": "[1]", "result": "at least partially restored"}, {"measurement": "reversal of ancymidol inhibition of soybean stature", "setting": "[2]", "result": "Good reversal of ancymidol inhibition of soybean stature"}, {"measurement": "Plant height (cm)", "setting": "A3237 soybean", "result": "14.9 (0.3) cm"}, {"measurement": "Plants per Acre", "setting": "[3]; 5 ppm GA3 seed treatment", "result": "41,458"}, {"measurement": "Yield (bushels/acre)", "setting": "[3]; 5 ppm GA3 seed treatment", "result": 41.6, "unit": "bushels/acre"}, {"measurement": "Plants per Acre", "setting": "[3]; 10 ppm GA3 seed treatment", "result": "35,133"}, {"measurement": "Yield (bushels/acre)", "setting": "[3]; 10 ppm GA3 seed treatment", "result": 31.9, "unit": "bushels/acre"}, {"measurement": "Plants per Acre", "setting": "[3]; 15 ppm GA3 seed treatment", "result": "30,566"}, {"measurement": "Yield (bushels/acre)", "setting": "[3]; 15 ppm GA3 seed treatment", "result": 31.4, "unit": "bushels/acre"}]}]}
